Source: patent publication US11059815B2, “Synthesis of small molecule histone deacetylase 6 degraders, compounds formed thereby, and pharmaceutical compositions containing them” (Wisconsin Alumni Research Foundation, priority 2018, dated 2021)

What was measured:
[1] = system: acetylated histone H3; assay: Western blot of acetylated histone H3 in MM1S cells; format: cell-based, human
From the text: FIGS. 12A, 12B, and 12C are a series of western blots showing that degrader 12d selectively promotes HDAC6 degradation in MM1S cells.
To further examine the selectivity of the new generation of HDAC6 degraders, compound 12d was compared to SAHA, Next-A, degrader 1 and pan-inhibitor 2 for change of acetylated a-tubulin and acetylated histone H3.
When the cells reached 90% confluence, they were harvested and plated 1×10^6 cells per well in 6-well plate. After overnight seeding, the cells were treated with a solution of compounds or vehicle in culture medium. The culture medium was removed after treatment and then washed twice with cold PBS. To obtain whole cell lysate, all cells were treated with RIPA lysis buffer (25 mM Tris, pH 7-8, 150 mM NaCl, 0.1% SDS, 0.5% sodium deoxycholate, 1% Triton X-100, protease inhibitor cocktail (Roche, 1 tablet per 10 mL) and 1 mM PMSF) on ice for 10 minutes. Supernatant was collected after spinning down at 16,000 g at 4° C. for 15 minutes. Protein concentration was measured by using the Pierce BCA protein assay (Thermo Fisher Scientific). […] The Immunoblot was generated by ChemiDoc MP Imaging Systems (Bio-Rad) and analyzed by Image J software (only available for download online at https://imagej.net/Downloads). […]

[2] = system: Caspase-3 and PARP; assay: Cleavage of Caspase-3 and PARP in MM1S; format: cell-based, human; conditions: 48 h treatment, data not shown
Experimental: Single treatment or co-treatment was performed as combined therapy (1 μM) for 72 hours in MM1S cells. […] However, the single treatment of 12d improved about 19% (P=0.0017) and 11% (P=0.0213) growth inhibition comparing with the combination sets of 13+15 (1:1) and pomalidomide+Next-A (1:1), respectively. To further confirm the observed enhancement, the anti-proliferation in response to 12d was studied from 0.3 nM to 3 μM. This single treatment was compared with dual treatment of 13 and 15 to rule out the potential complication derived from cell permeability issue. Degrader 12d lowered the bottom line (minimal proliferation) of curve over 20% although its IC50 was […] consequentially.
(§1) When the cells reached 90% confluence, they were harvested and plated 1×10^6 cells per well in 6-well plate. After overnight seeding, the cells were treated with a solution of compounds or vehicle in culture medium. The culture medium was removed after treatment and then washed twice with cold PBS. […] Protein concentration was measured by using the Pierce BCA protein assay (Thermo Fisher Scientific). […] The Immunoblot was generated by ChemiDoc MP Imaging Systems (Bio-Rad) and analyzed by Image J software (only available for download online at https://imagej.net/Downloads). […]

[3] = molecular target: T1, HDAC6 (Homo sapiens, UniProt Q9UBN7); assay: Immunoblot of HDAC6 degradation in MM.1S cells (second generation degraders); format: cell-based; conditions: 6 nM
T1 construct: endogenous in cells; host or cells: MM1S (ATCC CRL-2974)
T1 sequence (Q9UBN7 1-1215): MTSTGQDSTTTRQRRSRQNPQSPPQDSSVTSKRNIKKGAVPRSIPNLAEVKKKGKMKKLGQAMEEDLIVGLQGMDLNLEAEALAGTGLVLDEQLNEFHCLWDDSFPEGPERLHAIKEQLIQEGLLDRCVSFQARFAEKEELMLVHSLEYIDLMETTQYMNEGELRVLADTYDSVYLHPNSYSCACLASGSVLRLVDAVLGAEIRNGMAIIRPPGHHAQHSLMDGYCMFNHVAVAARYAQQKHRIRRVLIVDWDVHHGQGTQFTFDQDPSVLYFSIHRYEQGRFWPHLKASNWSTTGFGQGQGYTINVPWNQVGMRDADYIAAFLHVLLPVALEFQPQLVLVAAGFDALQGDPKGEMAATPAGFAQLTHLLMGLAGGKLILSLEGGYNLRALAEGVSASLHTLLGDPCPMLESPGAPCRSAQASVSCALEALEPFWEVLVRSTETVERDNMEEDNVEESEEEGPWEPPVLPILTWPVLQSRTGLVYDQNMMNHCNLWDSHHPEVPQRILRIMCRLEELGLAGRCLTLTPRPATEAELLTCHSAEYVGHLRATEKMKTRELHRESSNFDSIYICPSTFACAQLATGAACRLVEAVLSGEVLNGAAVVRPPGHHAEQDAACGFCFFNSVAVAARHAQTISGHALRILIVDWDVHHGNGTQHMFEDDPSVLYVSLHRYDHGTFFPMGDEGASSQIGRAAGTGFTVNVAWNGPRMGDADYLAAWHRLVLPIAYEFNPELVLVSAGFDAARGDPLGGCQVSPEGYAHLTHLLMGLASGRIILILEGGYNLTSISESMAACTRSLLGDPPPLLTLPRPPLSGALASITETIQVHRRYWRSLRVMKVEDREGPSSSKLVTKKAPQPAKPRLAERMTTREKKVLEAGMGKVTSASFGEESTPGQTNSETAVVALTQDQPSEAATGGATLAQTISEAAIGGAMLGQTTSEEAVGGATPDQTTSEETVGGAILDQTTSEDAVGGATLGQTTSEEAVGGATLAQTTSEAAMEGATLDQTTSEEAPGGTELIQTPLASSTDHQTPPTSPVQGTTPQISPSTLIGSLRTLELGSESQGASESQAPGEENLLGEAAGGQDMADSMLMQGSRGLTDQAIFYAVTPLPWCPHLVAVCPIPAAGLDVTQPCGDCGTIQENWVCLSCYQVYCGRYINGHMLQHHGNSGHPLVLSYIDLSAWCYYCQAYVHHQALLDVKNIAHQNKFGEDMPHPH
Experimental: FIG. 6A: Immunoblot showing degradation activity of 18x, 18a, and 18b against HDAC1, HDAC2, HDAC4, and HDAC6 (with β-actin as a control) at serial dilutions of 10 μM, 1 μM, and 100 nM.
FIG. 6B: Immunoblot showing degradation activity of 20a, 20b, 20c, 18c, 18a, and 18b against HDAC4 and HDAC6 (with α-tubulin as a control) at dilutions of 5 nM and 1 nM.
FIG. 6C: Immunoblot showing degradation activity of 18b and 9C against HDAC1, HDAC2, HDAC4, HDAC6, and HDAC8 (with β-actin as a control) at dilutions of 6, 19, 56, 167, and 500 nM.
Some of these HDAC6 degraders could degrade HDAC6 selectively at low nM concentrations in MM.
as §1

[4] = molecular target: T1, HDAC6; assay: In-cell ELISA of HDAC6 protein level in MM1S cells; format: cell-based; conditions: 1 nM to 3 μM, 6 h

CCCCN(Cc1ccc(C(=O)NO)cc1)C(=O)Nc1ccc(OCCCCCn2cc(CNc3cccc4c3C(=O)N(C3CCC(=O)NC3=O)C4=O)nn2)cc1 (centres unmarked) [Compound 12d, 4-((1-butyl-3-(4-((5-(4-(((2-(2,6-dioxopiperidin-3-yl)-1,3-dioxoisoindolin-4-yl)amino)methyl)-1H-1,2,3-triazol-1-yl)pentyl)oxy)phenyl)ureido)methyl)-N-hydroxybenzamide]
change of acetylated histone H3 [1]: No increase
cleavages of Caspase-3 and PARP [2]: dose-dependent

CCCCN(Cc1ccc(C(=O)NO)cc1)C(=O)Nc1ccc(OCCCn2cc(CNc3ccc4c(c3)C(=O)N(C3CCC(=O)NC3=O)C4=O)nn2)cc1 (centres unmarked) [Compound 12m, 4-((1-butyl-3-(4-(3-(4-(((2-(2,6-dioxopiperidin-3-yl)-1,3-dioxoisoindolin-5-yl)amino)methyl)-1H-1,2,3-triazol-1-yl)propoxy)phenyl)ureido)methyl)-N-hydroxybenzamide]
HDAC6 depletion [3]: completely depleted

CCCCN(Cc1ccc(C(=O)NO)cc1)C(=O)Nc1ccc(OCCCCCn2cc(CNc3cccc4c3C(=O)N(C3CCC(=O)NC3=O)C4=O)nn2)cc1 (centres unmarked) [Compound 2]
DC50 ([4]; read-out: DC50 (Part 2)): 2.2 nM
Dmax ([4]; MM1.S, read-out: Dmax (Part 2)): 85.6%
